Test results published in US20060258598A1, “Alpha-keto carbonyl calpain inhibitors” (priority 2003, published 2006).
pEC50, pIC50: −log10 of the molar value.

Columns and labels:
human μ-calpain = biological target: T1, human μ-calpain (Homo sapiens, UniProt P07384); assay: Enzymatic calpain inhibition assay; assay type: biochemical; details: substrate Suc-Leu-Tyr-AMC, read-out: Calp I IC50
T1 construct: purchased Calbiochem
T1 sequence (P07384 1-714): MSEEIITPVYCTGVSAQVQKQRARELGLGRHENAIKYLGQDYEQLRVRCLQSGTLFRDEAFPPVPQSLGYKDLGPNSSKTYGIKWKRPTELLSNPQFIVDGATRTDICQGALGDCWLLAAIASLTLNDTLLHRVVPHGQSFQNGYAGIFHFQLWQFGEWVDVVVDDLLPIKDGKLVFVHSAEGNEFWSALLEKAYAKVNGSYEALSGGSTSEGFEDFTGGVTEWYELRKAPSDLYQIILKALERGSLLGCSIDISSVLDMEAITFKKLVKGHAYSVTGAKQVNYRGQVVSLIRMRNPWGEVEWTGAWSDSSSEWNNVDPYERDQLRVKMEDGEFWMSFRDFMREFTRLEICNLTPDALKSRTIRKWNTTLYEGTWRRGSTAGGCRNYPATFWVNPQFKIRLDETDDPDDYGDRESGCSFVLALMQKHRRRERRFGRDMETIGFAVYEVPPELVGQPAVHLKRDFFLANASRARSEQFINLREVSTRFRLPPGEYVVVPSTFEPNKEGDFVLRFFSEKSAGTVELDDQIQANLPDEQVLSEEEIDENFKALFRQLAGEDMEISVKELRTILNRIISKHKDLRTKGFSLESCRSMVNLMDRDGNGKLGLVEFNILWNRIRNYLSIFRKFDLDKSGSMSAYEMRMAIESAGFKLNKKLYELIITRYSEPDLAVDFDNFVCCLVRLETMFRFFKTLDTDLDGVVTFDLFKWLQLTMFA
T1 sequence (P04632 1-268 partner): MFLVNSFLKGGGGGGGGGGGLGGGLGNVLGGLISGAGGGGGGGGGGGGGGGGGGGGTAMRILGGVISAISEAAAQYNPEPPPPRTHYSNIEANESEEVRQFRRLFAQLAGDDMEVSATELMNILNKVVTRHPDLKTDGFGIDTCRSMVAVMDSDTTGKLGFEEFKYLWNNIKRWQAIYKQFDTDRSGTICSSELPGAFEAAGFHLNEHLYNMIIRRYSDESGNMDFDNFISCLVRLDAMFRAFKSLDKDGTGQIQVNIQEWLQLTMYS
How it was run: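 Human μ-calpain (0.5 μg) with 250 μM Suc-Leu-Tyr-AMC in 100 mM imidazole pH 7.5, 5 mM cysteine, 5 mM CaCl2. AMC fluorescence (ex 360/em 440 nm) followed 30 min at 30 °C; IC50 determined graphically from initial velocities versus inhibitor concentration.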

20S Proteasome = biological target: T2, 20S Proteasome (Oryctolagus cuniculus, UniProt G1T4Q9); assay: 20S Proteasome assay; assay type: biochemical, Rabbit; details: substrate Suc-Leu-Leu-Val-Tyr-AMC; read-out: 20S Prot IC50
T2 sequence (G1T4Q9 1-263): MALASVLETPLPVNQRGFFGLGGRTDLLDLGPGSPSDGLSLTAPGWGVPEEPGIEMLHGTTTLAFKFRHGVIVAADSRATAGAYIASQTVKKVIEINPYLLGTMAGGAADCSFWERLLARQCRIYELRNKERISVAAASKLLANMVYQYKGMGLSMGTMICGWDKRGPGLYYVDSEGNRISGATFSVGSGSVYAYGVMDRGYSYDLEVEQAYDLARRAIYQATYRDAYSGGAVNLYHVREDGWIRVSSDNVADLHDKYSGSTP
Description: 25 μl of a reaction buffer containing 400 μM of the fluorogenic substrate Suc-Leu-Leu-Val-Tyr-AMC (Bachem) are dispensed per well of a white microtiter plate. Test compounds dissolved in 0.5 μl DMSO are added. To start the reaction; 25 μl of reaction buffer containing 35 ng of enzyme (20S Proteasome, Rabbit, Calbiochem) are added. The increase in fluorescence (excitation at 360 nm; emission at 440 nm) is measured over 30 min at 30° C. at 30″. The IC50's are then determined from the slopes.

[1] = tested on: cellular calpains in C2C12 myoblasts; assay: Calpain inhibition assay in C2C12 myoblasts; assay type: cell-based; details: 2 h incubation, calcium ionophore Br-A-23187, read-out: Calp I IC50 Myoblast
How it was run: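 Confluent C2C12 myoblasts in fusion medium (DMEM, 5% horse serum) exposed to compound for 2 h at 37 °C, then loaded with 400 μM Suc-Leu-Tyr-AMC for 20 min at room temperature in buffer with 4 mM CaCl2, HEPES pH 7.25. Calpains activated by Br-A-23187 ionophore (20 μM in added buffer); AMC fluorescence read each minute for 60 min at 37 °C to derive IC50.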

[2] = tested on: Primary fibroblasts from donors with Friedreich Ataxia (FRDA); assay: BSO assay (cell viability under BSO-induced oxidative stress); assay type: cell-based, human; details: 24 h preincubation, 1 mM BSO; for pEC50: Homo sapiens, Fibroblast
How it was run: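 FRDA patient primary fibroblasts were pretreated with compounds for 24 h, then exposed to 1 mM BSO (final) until toxicity appeared in BSO-only controls (typically 16–48 h). Viability was read by calcein AM (1.2 μM)/ethidium homodimer (4 μM) staining, 60 min RT, fluorescence 485/525 nm.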

pIC50 (human μ-calpain)	pIC50 (20S Proteasome)	pIC50 [1]	SMILES	pEC50 [2]	BSO EC50 [2]
7.22	6.30	6.46	CCNC(=O)C(=O)[C@H](Cc1ccc(Cl)cc1)NC(=O)[C@@H](NC(=O)CCCCC1CCSS1)C(C)C (stereo partly shown) [Example 1]	6.46	
7.00	6.96	6.40	CCNC(=O)C(=O)[C@H](Cc1ccc(Cl)cc1)NC(=O)[C@@H](NC(=O)CCCCC1CCCS1)C(C)C (stereo partly shown) [Example 3]	5.40	
7.46	6.10	5.52	CCNC(=O)C(=O)[C@H](Cc1ccc(F)cc1)NC(=O)[C@H](CC(C)C)NC(=O)CCCCC1CCSS1 (stereo partly shown) [Example 39]		inactive
7.40	6.35	6.40	CCNC(=O)C(=O)[C@H](Cc1ccc(F)c(F)c1)NC(=O)[C@H](CC(C)C)NC(=O)CCCCC1CCSS1 (stereo partly shown) [Example 47]		
7.22	6.74	6.70	CCNC(=O)C(=O)[C@H](Cc1ccc(Br)cc1)NC(=O)[C@@H](NC(=O)CCCCC1CCSS1)C(C)C (stereo partly shown) [Example 53]	6.40	
7.12	< 6.00	6.51	CC(C)[C@H](NC(=O)CCCCC1CCSS1)C(=O)N[C@@H](Cc1ccc(Br)cc1)C(=O)C(=O)NC1CCCCC1 (stereo partly shown) [Example 57]		inactive
7.82	6.40	5.82	CCNC(=O)C(=O)[C@H](Cc1ccc(Br)cc1)NC(=O)[C@H](CC(C)C)NC(=O)CCCCC1CCS[S+]1[O-] (stereo partly shown) [Example 65]	6.00	
6.40	< 5.00	5.92	CCNC(=O)C(=O)[C@H](Cc1ccc(OC)cc1)NC(=O)[C@@H](NC(=O)CCCCC1CCC[S+]1[O-])C(C)C (stereo partly shown) [Example 87]	5.05	
7.82	6.40	6.00	CCNC(=O)C(=O)[C@H](Cc1ccc(OC)cc1)NC(=O)[C@H](CC(C)C)NC(=O)CCCCC1CCSS1 (stereo partly shown) [Example 94]	5.82	
7.15	6.74	6.46	CCNC(=O)C(=O)[C@H](Cc1ccc(C)cc1)NC(=O)[C@@H](NC(=O)CCCCC1CCSS1)C(C)C (stereo partly shown) [Example 104]	6.52	
7.52	6.55	6.30	CCNC(=O)C(=O)[C@H](Cc1ccc(C)cc1)NC(=O)[C@H](CC(C)C)NC(=O)CCCCC1CCSS1 (stereo partly shown) [Example 110]	6.30	
7.12	< 6.00	5.96	CCNC(=O)C(=O)[C@H](Cc1ccc(C(F)(F)F)cc1)NC(=O)[C@H](CC(C)C)NC(=O)CCCCC1CCSS1 (stereo partly shown) [Example 124]	5.30	
6.82	7.10	6.35	Cc1ccc(S(=O)(=O)CNC(=O)C(=O)[C@H](Cc2ccccc2)NC(=O)[C@@H](NC(=O)CCCCC2CCSS2)C(C)C)cc1 (stereo partly shown) [Example 140]	6.30	
7.46	< 4.00	5.74	CCNC(=O)C(=O)[C@H](CC1CCCCC1)NC(=O)[C@H](CC(C)C)NC(=O)CCCCC1CCSS1 (stereo partly shown) [Example 151]		
7.70	< 6.00	5.70	CCNC(=O)C(=O)[C@H](Cc1ccc(Br)cc1)NC(=O)[C@H](CC(C)C)NC(=O)CCCCC1SC[C@@H]2NC(=O)N[C@H]12 (stereo partly shown) [Example 164]		inactive
7.40		5.82	CCNC(=O)C(=O)[C@H](Cc1ccc(Br)cc1)NC(=O)[C@H](CC(C)C)NC(=O)CNC(=O)CCCCC1CCSS1 (stereo partly shown) [Example 186]	5.30	
7.82		5.12	CCNC(=O)C(=O)[C@H](Cc1ccc(Br)cc1)NC(=O)[C@H](CC(C)C)NC(=O)CNC(=O)CCCCC1CCS[S+]1[O-] (stereo partly shown) [Example 187]	4.70	
6.43		5.49	CCNC(=O)C(=O)[C@H](Cc1ccc(OC)cc1)NC(=O)[C@@H](NC(=O)C1(NC(=O)CCCCC2CCSS2)CC1)C(C)C (stereo partly shown) [Example 192]	5.82	
6.77		5.82	CCNC(=O)C(=O)[C@H](Cc1ccc(OC)cc1)NC(=O)[C@@H](NC(=O)C1(NC(=O)CCCCC2CCSS2)CCCCC1)C(C)C (stereo partly shown) [Example 195]	5.30	
< 6.00		6.40	CCNC(=O)C(=O)[C@H](Cc1ccc(OC)cc1)NC(=O)[C@@H](NC(=O)c1ccc(NC(=O)CCCCC2CCSS2)cc1)C(C)C (stereo partly shown) [Example 196]	5.70	
7.34	6.38	6.60	CCNC(=O)C(=O)[C@H](Cc1ccc(OC)cc1)NC(=O)[C@@H](NC(=O)c1cccc(NC(=O)CCCCC2CCSS2)c1)C(C)C (stereo partly shown) [Example 197]		
7.59		5.74	CCNC(=O)C(=O)[C@H](Cc1ccc(OC)cc1)NC(=O)[C@@H](NC(=O)c1ccccc1NC(=O)CCCCC1CCSS1)C(C)C (stereo partly shown) [Example 198]	5.10	
7.59		5.92	CCNC(=O)C(=O)[C@H](Cc1ccc(OC)cc1)NC(=O)[C@@H](NC(=O)c1ccccc1NC(=O)CCCCC1CCS[S+]1[O-])C(C)C (stereo partly shown) [Example 199]	5.40	
7.33		5.10	CCNC(=O)C(=O)[C@H](Cc1ccccc1)NC(=O)[C@@H](NC(=O)CNC(=O)CCCCC1CCSS1)C(C)C (stereo partly shown) [Example 207]	4.52	
7.22		5.60	CC(C)[C@H](NC(=O)CNC(=O)CCCCC1CCSS1)C(=O)N[C@@H](Cc1ccccc1)C(=O)C(=O)NCc1ccccc1 (stereo partly shown) [Example 209]	< 4.00	
7.40		5.35	CCNC(=O)C(=O)[C@H](Cc1ccccc1)NC(=O)[C@H](CC(C)C)NC(=O)CNC(=O)CCCCC1CCSS1 (stereo partly shown) [Example 210]	5.00	
7.60		4.82	CCNC(=O)C(=O)[C@H](Cc1ccccc1)NC(=O)[C@H](CC(C)C)NC(=O)CNC(=O)CCCCC1CCS[S+]1[O-] (stereo partly shown) [Example 211]	5.40	
